# Patent US6750025B1 (priority 1998, dated 2004)
# “Also recorded” adds a separate entry of the source.
# Tests used:
# [1] = biological target: streptavidin binding to the prion protein (Streptomyces avidinii, UniProt P22629)
# [2] = biological target: T1, streptavidin binding to Gly-Tyr-Gly-Gln-Pro-His-Gly-Gly sequence attached to resin A (Streptomyces avidinii, UniProt P22629)
# T1 construct: purchased Sigma (streptavidin-phosphatase); Commonwealth Biotechnologies Inc. (peptide resin)
# Streptavidin = Streptavidin (Streptomyces avidinii, UniProt P22629); settings: cited from earlier work
# Streptavidin, sequence (P22629 25-183): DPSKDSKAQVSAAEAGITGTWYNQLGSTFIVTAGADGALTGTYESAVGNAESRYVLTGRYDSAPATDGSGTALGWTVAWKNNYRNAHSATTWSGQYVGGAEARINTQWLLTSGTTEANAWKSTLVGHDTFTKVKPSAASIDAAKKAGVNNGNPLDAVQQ
# streptavidin binding to the prion protein, sequence (P22629 25-183 limits assumed): as the sequence (P22629 25-183) above
# T1 sequence (P22629 25-183): as above
structure (smiles),measurement,setting,value
O=C(O)CCCC[C@@H]1SC[C@@H]2NC(=O)N[C@@H]21 [D-biotin],competition with the production of signal,[1]; D-biotin added after binding of streptavidin to the proteins,did not compete with the production of signal
same,inhibition of banding at 30-34 kDa,[1]; streptavidin-phosphatase mixed with 10 μM D-biotin prior to addition to the Western blot,completely inhibited
same,phosphatase activity in flow through of resin A after biotin pre-incubation,[2],significant phosphatase activity; also recorded: found in the first few column volumes
same,affinity of streptavidin to biotin,Streptavidin,~10^15
